Reference: patent US11147272B2, “Pyridone compounds and agricultural and horticultural fungicides comprising the same as active ingredients” (MITSUI CHEMICALS AGRO, INC., priority 2017, dated 2021)

How the values were obtained:
[1] = test system: Alternaia brassicicola; test: Test Example C: Alternaria sooty spot on cabbage; type: in vivo; conditions: Alternaria sooty spot on cabbage; class of control value
Description: Seeds of a test plant (cabbage variety: Shikidori) were planted and cultivated until the cotyledons extended.
<Control Value> Control value=100{1−(n/3)}

[2] = test system: Puccinia recondita; test: Test Example E: Brown rust on wheat; type: in vivo; conditions: Brown rust on wheat; class of control value
[3] = test system: Blumeria graminis f. sp. hordei; test: Test Example D: Powdery mildew on barley; conditions: Powdery mildew on barley; class of control value
[4] = test system: Colletotrichum orbiculare; test: Test Example H: Anthracnose on cucumber; conditions: Anthracnose on cucumber (Sagami Hanjiro); 250 ppm spray, 2.5 ml/pot; assessed 6 to 10 days after inoculation
[5] = test system: Plasmopara viticola; test: Test Example G: Downy mildew on vine; conditions: Downy mildew on vine (Neomuscat); 250 ppm spray, 2.5 ml/pot; assessed 7 to 10 days after inoculation
[6] = test system: Phytophthora infestans; test: whole plant or invertebrate; type: in vivo; conditions: Late blight on tomato; class of control value
[7] = test system: Magnaporthe grisea; test: whole plant or invertebrate; type: in vivo; conditions: Blast on rice; class of control value
[8] = test system: Botrytis cinerea; test: Test Example B: Gray mold on tomato; conditions: Gray mold on tomato; class of control value

| Compound | Test C control value class [1] | Test E control value class [2] | Test D control value class [3] | Test H control value class [4] | Test G control value class [5] | Test F control value class [6] | Test A control value class [7] | Test B control value class [8] |
| --- | --- | --- | --- | --- | --- | --- | --- | --- |
| CCn1c(-c2ccc(OC)cc2F)c(CC(C)C)cc(Cl)c1=O [compound 115] | H (more than 50% control value) | H (more than 50% control value) | H (more than 50% control value) | H (more than 50% control value) | L (50% or less control value) | L (50% or less control value) | H (more than 50% control value) | H (more than 50% control value) |
| CCn1c(-c2ccc(OC)cc2F)c(CC(C)C)cc(Br)c1=O [compound 116] | H (more than 50% control value) | H (more than 50% control value) | H (more than 50% control value) | H (more than 50% control value) | H (more than 50% control value) | L (50% or less control value) | H (more than 50% control value) | H (more than 50% control value) |
| CCn1c(-c2ccc(F)cc2F)c(CC(C)C)ccc1=O [compound 117] | H (more than 50% control value) | H (more than 50% control value) | H (more than 50% control value) | H (more than 50% control value) | L (50% or less control value) | L (50% or less control value) | H (more than 50% control value) | H (more than 50% control value) |
| CCn1c(-c2ccc(O)cc2F)c(CC(C)C)cc(Cl)c1=O [compound 118] | H (more than 50% control value) | H (more than 50% control value) | L (50% or less control value) | L (50% or less control value) | L (50% or less control value) | L (50% or less control value) | L (50% or less control value) | H (more than 50% control value) |
| CCn1c(-c2ccc(F)cc2F)c(CC(C)C)cc(Cl)c1=O [compound 119] | H (more than 50% control value) | H (more than 50% control value) | H (more than 50% control value) | H (more than 50% control value) | H (more than 50% control value) | L (50% or less control value) | H (more than 50% control value) | H (more than 50% control value) |
| CCn1c(-c2ccc(F)cc2F)c(CC(C)C)cc(Br)c1=O [compound 120] | H (more than 50% control value) | H (more than 50% control value) | H (more than 50% control value) | H (more than 50% control value) | L (50% or less control value) | L (50% or less control value) | H (more than 50% control value) | H (more than 50% control value) |
| CCn1c(-c2ccc(OCCOC)cc2F)c(CC(C)C)cc(Cl)c1=O [compound 121] | H (more than 50% control value) | H (more than 50% control value) | H (more than 50% control value) | H (more than 50% control value) | L (50% or less control value) | L (50% or less control value) | H (more than 50% control value) | H (more than 50% control value) |
| CCn1c(-c2ccc(OCOC)cc2F)c(CC(C)C)cc(Cl)c1=O [compound 122] | H (more than 50% control value) | H (more than 50% control value) | H (more than 50% control value) | H (more than 50% control value) | H (more than 50% control value) | L (50% or less control value) | H (more than 50% control value) | H (more than 50% control value) |
| CCOc1ccc(-c2c(CC(C)C)cc(Cl)c(=O)n2CC)c(F)c1 [compound 123] | H (more than 50% control value) | H (more than 50% control value) | H (more than 50% control value) | H (more than 50% control value) | H (more than 50% control value) | L (50% or less control value) | H (more than 50% control value) | H (more than 50% control value) |
| C=CCOc1ccc(-c2c(CC(C)C)cc(Cl)c(=O)n2CC)c(F)c1 [compound 124] | H (more than 50% control value) | H (more than 50% control value) | H (more than 50% control value) | H (more than 50% control value) | L (50% or less control value) | L (50% or less control value) | H (more than 50% control value) | H (more than 50% control value) |
| C#CCOc1ccc(-c2c(CC(C)C)cc(Cl)c(=O)n2CC)c(F)c1 [compound 125] | H (more than 50% control value) | H (more than 50% control value) | H (more than 50% control value) | H (more than 50% control value) | H (more than 50% control value) | L (50% or less control value) | H (more than 50% control value) | H (more than 50% control value) |
| CCCOc1ccc(-c2c(CC(C)C)cc(Cl)c(=O)n2CC)c(F)c1 [compound 126] | H (more than 50% control value) | H (more than 50% control value) | H (more than 50% control value) | H (more than 50% control value) | H (more than 50% control value) | L (50% or less control value) | L (50% or less control value) | H (more than 50% control value) |
| CCn1c(-c2ccc(OCC#N)cc2F)c(CC(C)C)cc(Cl)c1=O [compound 127] | H (more than 50% control value) | H (more than 50% control value) | H (more than 50% control value) | H (more than 50% control value) | H (more than 50% control value) | L (50% or less control value) | L (50% or less control value) | H (more than 50% control value) |
| CCn1c(-c2ccc(OCSC)cc2F)c(CC(C)C)cc(Cl)c1=O [compound 128] | H (more than 50% control value) | H (more than 50% control value) | H (more than 50% control value) | H (more than 50% control value) | H (more than 50% control value) | L (50% or less control value) | H (more than 50% control value) | H (more than 50% control value) |
| CCn1c(-c2ccc(OCC3CC3)cc2F)c(CC(C)C)cc(Cl)c1=O [compound 129] | H (more than 50% control value) | H (more than 50% control value) | H (more than 50% control value) | L (50% or less control value) | H (more than 50% control value) | L (50% or less control value) | L (50% or less control value) | H (more than 50% control value) |
| CCn1c(-c2c(F)cc(OC)cc2F)c(CN(OC)C(C)=O)cc(Cl)c1=O [compound 130] | H (more than 50% control value) | H (more than 50% control value) | L (50% or less control value) | H (more than 50% control value) | H (more than 50% control value) | L (50% or less control value) | H (more than 50% control value) | L (50% or less control value) |
